Key:
Format in all cases: in vivo
[1] = test system: ABUTH: Abutilon theophrasti; assay: Post-emergence herbicidal efficacy at 1280 g/ha, ABUTH; settings: rated visually after about 3 weeks vs untreated controls, 100% = plants have died, 0% = like control plants
How it was run: (§1)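 Read-out is visual percent activity relative to untreated controls (100% = plants died, 0% = no effect), scored about 3 weeks after treatment. Application was post-emergence at the one-leaf stage in the greenhouse, as WP or EC in water with 0.5% additive at 600 L/ha.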

[2] = test system: ALOMY: Alopecurus myosuroides; assay: Post-emergence herbicidal efficacy at 1280 g/ha, ALOMY; settings: rated visually after about 3 weeks vs untreated controls, 100% = plants have died, 0% = like control plants
Experimental: (§2) Seeds of mono- and dicotyledonous weed plants were placed in plastic pots in sandy loam soil (doubly sown with in each case one species of mono- or dicotyledonous weed plants per pot), covered with soil and cultivated in a greenhouse under controlled growth conditions. 2 to 3 weeks after sowing, the test plants were treated at the one-leaf stage. The compounds of the invention, formulated in the form of wettable powders (WP) or as emulsion concentrates (EC), were applied to the green parts of the plants as aqueous suspension or emulsion with addition of 0.5% additive at a water application rate equivalent to 600 litres per hectare. After the test plants had been kept in the greenhouse under optimum growth conditions for about 3 weeks, the activity of the preparations was rated visually in comparison to untreated controls. For example, 100% activity=the plants have died, 0% activity=like control plants. Tables A1 to A12 below show the effects of selected compounds of the general formula (I) according to Table 1 on various harmful plants and at an application rate corresponding to 1280 g/ha, which were obtained by the trial procedure specified above.

[3] = test system: AMARE: Amaranthus retroflexus; assay: Post-emergence herbicidal efficacy at 1280 g/ha, AMARE; settings: rated visually after about 3 weeks vs untreated controls, 100% = plants have died, 0% = like control plants
How it was run: as §1

[4] = test system: DIGSA: Digitaria sanguinalis; assay: Post-emergence herbicidal efficacy at 1280 g/ha, DIGSA; settings: rated visually after about 3 weeks vs untreated controls, 100% = plants have died, 0% = like control plants
How it was run: as §1

[5] = test system: ECHCG: Echinochloa crus-galli; assay: Post-emergence herbicidal efficacy at 1280 g/ha, ECHCG; settings: rated visually after about 3 weeks vs untreated controls, 100% = plants have died, 0% = like control plants
How it was run: as §1

KCHSC: Kochia scoparia [6] = assay: Post-emergence herbicidal efficacy at 1280 g/ha, KCHSC; settings: visual rating about 3 weeks after treatment vs untreated controls
How it was run: as §1

LOLRI: Lolium rigidum [7] = assay: Post-emergence herbicidal efficacy at 1280 g/ha, LOLRI; settings: visual rating about 3 weeks after treatment vs untreated controls
Experimental: as §2

POAAN: Poa annua [8] = assay: Post-emergence herbicidal efficacy at 1280 g/ha, POAAN; settings: visual rating about 3 weeks after treatment vs untreated controls
How it was run: as §1

SETVI: Setaria viridis [9] = assay: Post-emergence herbicidal efficacy at 1280 g/ha, SETVI; settings: visual rating about 3 weeks after treatment vs untreated controls
How it was run: as §1

STEME: Stellaria media [10] = assay: Post-emergence herbicidal efficacy at 1280 g/ha, STEME; settings: visual rating about 3 weeks after treatment vs untreated controls
How it was run: as §1

VERPE: Veronica persica [11] = assay: Post-emergence herbicidal efficacy at 1280 g/ha, VERPE; settings: visual rating about 3 weeks after treatment vs untreated controls
How it was run: as §1

[12] = test system: AMARE: Amaranthus retroflexus; assay: Post-emergence herbicidal efficacy at 80 g/ha, AMARE; settings: visual rating about 3 weeks after treatment vs untreated controls
How it was run: (§3)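 Activity is a visual score relative to untreated plants, taken about 3 weeks after treatment, where 100% means plant death and 0% means no difference from control. Weeds in sandy loam were sprayed at the one-leaf stage with an aqueous WP or EC preparation carrying 0.5% additive at 600 l/ha.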

KCHSC: Kochia scoparia [13] = assay: Post-emergence herbicidal efficacy at 80 g/ha, KCHSC; settings: visual rating about 3 weeks after treatment vs untreated controls
Experimental: (§4) Seeds of monocotyledonous and dicotyledonous weeds and crop plants were placed in sandy loam in plastic or organic planting pots, covered with soil and cultivated in a greenhouse under controlled growth conditions. 2 to 3 weeks after sowing, the test plants were treated at the one-leaf stage. The compounds of the invention, formulated in the form of wettable powders (WP) or as emulsion concentrates (EC), were then sprayed onto the green parts of the plants as aqueous suspension or emulsion with addition of 0.5% additive at a water application rate of 600 l/ha (converted). After the test plants had been kept in the greenhouse under optimum growth conditions for about 3 weeks, the activity of the preparations was rated visually in comparison to untreated controls. For example, 100% activity=the plants have died, 0% activity=like control plants. Tables B1 to B10 below show the effects of selected compounds of the general formula (I) according to Table 1 on various harmful plants and an application rate corresponding to 80 g/ha, which were obtained by the experimental procedure mentioned above.

VERPE: Veronica persica [14] = assay: Post-emergence herbicidal efficacy at 80 g/ha, VERPE; settings: visual rating about 3 weeks after treatment vs untreated controls
How it was run: as §3

VIOTR: Viola tricolor [15] = assay: Post-emergence herbicidal efficacy at 80 g/ha, VIOTR; settings: visual rating about 3 weeks after treatment vs untreated controls
Experimental: as §4

[16] = test system: ABUTH: Abutilon theophrasti; assay: Pre-emergence herbicide efficacy at 1280 g/ha, ABUTH; settings: visual scoring after about 3 weeks vs untreated controls
How it was run: (§5)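 Pre-emergence pot test in sandy loam: WP or EC formulations sprayed onto covering soil after sowing, as aqueous suspension/emulsion with 0.5% additive at 600 L/ha water. Plants grown in greenhouse; after about 3 weeks, efficacy scored visually as % versus untreated controls (100% = dead, 0% = like control).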

[17] = test system: ALOMY: Alopecurus myosuroides; assay: Pre-emergence herbicide efficacy at 1280 g/ha, ALOMY; settings: visual scoring after about 3 weeks vs untreated controls
From the text: (§6) Seeds of mono- and dicotyledonous weed plants were placed in plastic pots in sandy loam soil (doubly sown with one species each of mono- or dicotyledonous weed plants per pot) and covered with soil. The compounds of the invention, formulated in the form of wettable powders (WP) or as emulsion concentrates (EC), were then applied to the surface of the covering soil as aqueous suspension or emulsion with addition of 0.5% additive at a water application rate of 600 litres per hectare (converted). After the treatment, the pots were placed in a greenhouse and kept under good growth conditions for the test plants. After about 3 weeks, the efficacy of the preparations was scored visually in comparison with untreated controls as percentages. For example, 100% activity=the plants have died, 0% activity=like control plants. Tables C1 to C12 below show the effects of selected compounds of the general formula (I) according to Table 1 on various harmful plants and at an application rate corresponding to 1280 g/ha, which were obtained by the trial procedure specified above.

[18] = test system: AMARE: Amaranthus retroflexus; assay: Pre-emergence herbicide efficacy at 1280 g/ha, AMARE; settings: visual scoring after about 3 weeks vs untreated controls
How it was run: as §5

[19] = test system: DIGSA: Digitaria sanguinalis; assay: Pre-emergence herbicide efficacy at 1280 g/ha, DIGSA; settings: visual scoring after about 3 weeks vs untreated controls
How it was run: as §5

[20] = test system: ECHCG: Echinochloa crus-galli; assay: Pre-emergence herbicide efficacy at 1280 g/ha, ECHCG; settings: visual scoring after about 3 weeks vs untreated controls
How it was run: as §5

KCHSC: Kochia scoparia [21] = assay: Pre-emergence herbicide efficacy at 1280 g/ha, KCHSC; settings: visual scoring after about 3 weeks vs untreated controls
How it was run: as §5

LOLRI: Lolium rigidum [22] = assay: Pre-emergence herbicide efficacy at 1280 g/ha, LOLRI; settings: visual scoring after about 3 weeks vs untreated controls
From the text: as §6

[23] = test system: MATIN: Matricaria inodora; assay: Pre-emergence herbicide efficacy at 1280 g/ha, MATIN; settings: visual scoring after about 3 weeks vs untreated controls
How it was run: as §5

POAAN: Poa annua [24] = assay: Pre-emergence herbicide efficacy at 1280 g/ha, POAAN; settings: visual scoring after about 3 weeks vs untreated controls
How it was run: as §5

SETVI: Setaria viridis [25] = assay: Pre-emergence herbicide efficacy at 1280 g/ha, SETVI; settings: visual scoring vs untreated controls
How it was run: as §5

STEME: Stellaria media [26] = assay: Pre-emergence herbicide efficacy at 1280 g/ha, STEME; settings: visual scoring vs untreated controls
How it was run: as §5

VERPE: Veronica persica [27] = assay: Pre-emergence herbicide efficacy at 1280 g/ha, VERPE; settings: visual scoring vs untreated controls
How it was run: as §5

VIOTR: Viola tricolor [28] = assay: Pre-emergence herbicide efficacy at 80 g/ha, VIOTR; settings: scored visually after about 3 weeks
From the text: Seeds of monocotyledonous and dicotyledonous weed plants and crop plants were placed in plastic or organic planting pots and covered with soil. The compounds of the invention, formulated in the form of wettable powders (WP) or as emulsion concentrates (EC), were then applied to the surface of the covering soil as aqueous suspension or emulsion with addition of 0.5% additive at a water application rate equivalent to 600 l/ha. After the treatment, the pots were placed in a greenhouse and kept under good growth conditions for the test plants. After about 3 weeks, the efficacy of the preparations was scored visually in comparison with untreated controls as percentages. For example, 100% activity=the plants have died, 0% activity=like control plants. Tables D1 to D12 below show the effects of selected compounds of the general formula (I) according to Table 1 on various harmful plants and an application rate corresponding to 80 g/ha, which were obtained by the experimental procedure mentioned above.

Structure (SMILES): Fc1ccc(Oc2c(Cc3ncc(Cl)cn3)cccc2C(F)(F)F)cc1 [Example 1-40]
- Post-emergence efficacy at 1280 g/ha against ABUTH in % [1]: 100%
- Post-emergence efficacy at 1280 g/ha against ALOMY in % [2]: 100%
- Post-emergence efficacy at 1280 g/ha against AMARE in % [3]: 100%
- Post-emergence efficacy at 1280 g/ha against DIGSA in % [4]: 90%
- Post-emergence efficacy at 1280 g/ha against ECHCG in % [5]: 100%
- Post-emergence efficacy against KCHSC (KCHSC: Kochia scoparia [6]): 100%
- Post-emergence efficacy against LOLRI (LOLRI: Lolium rigidum [7]): 100%
- Post-emergence efficacy against POAAN (POAAN: Poa annua [8]): 90%
- Post-emergence efficacy against SETVI (SETVI: Setaria viridis [9]): 90%
- Post-emergence efficacy against STEME (STEME: Stellaria media [10]): 100%
- Post-emergence efficacy against VERPE (VERPE: Veronica persica [11]): 100%
- Post-emergence efficacy against AMARE [12]: 90%
- Post-emergence efficacy against KCHSC (KCHSC: Kochia scoparia [13]): 90%
- Post-emergence efficacy against VERPE (VERPE: Veronica persica [14]): 90%
- Post-emergence efficacy against VIOTR (VIOTR: Viola tricolor [15]): 100%
- Pre-emergence efficacy against ABUTH [16]: 100%
- Pre-emergence efficacy against ALOMY [17]: 100%
- Pre-emergence efficacy against AMARE [18]: 100%
- Pre-emergence efficacy against DIGSA [19]: 100%
- Pre-emergence efficacy against ECHCG [20]: 100%
- Pre-emergence efficacy against KCHSC (KCHSC: Kochia scoparia [21]): 90%
- Pre-emergence efficacy against LOLRI (LOLRI: Lolium rigidum [22]): 100%
- Pre-emergence efficacy against MATIN [23]: 90%
- Pre-emergence efficacy against POAAN (POAAN: Poa annua [24]): 100%
- Pre-emergence efficacy against SETVI in % (SETVI: Setaria viridis [25]): 100%
- Pre-emergence efficacy against STEME in % (STEME: Stellaria media [26]): 100%
- Pre-emergence efficacy against VERPE in % (VERPE: Veronica persica [27]): 100%
- Pre-emergence efficacy against VIOTR in % (VIOTR: Viola tricolor [28]): 100%

— patent US20250221410A1, “SUBSTITUTED 2-C-AZINES AND SALTS THEREOF, AND USE THEREOF AS HERBICIDAL ACTIVE SUBSTANCES” (BAYER AKTIENGESELLSCHAFT, priority 2022, published 2025)
